Laboratory results published in patent publication US20260337153A1, “IONIZABLE AMINE LIPIDS” (Intellia Therapeutics, Inc., priority 2023, published 2026).
Values joined by “and” are separate entries in the source; they are usually repeats but may differ in a detail not shown here. Identical values can stand only once.

Assay: LNP encapsulation efficiency of RNA (Ribogreen fluorescence assay)
Assay type: physicochemical
Conditions: sgRNA:mRNA 1:2
Procedure: LNP compositions are analyzed for average particle size, polydispersity index (pdi), total RNA content, encapsulation efficiency of RNA, and zeta potential. LNP compositions may be further characterized by lipid analysis, AF4-MALS, NTA, and/or cryo-EM.
Encapsulation efficiency is calculated as (Total RNA−Free RNA)/Total RNA. A fluorescence-based assay (Ribogreen®, ThermoFisher Scientific) is used to determine total RNA concentration and free RNA. LNP samples are diluted appropriately with 1×TE buffer containing 0.2% Triton-X 100 to determine total RNA or 1×TE buffer to determine free RNA. Standard curves are prepared by utilizing the starting RNA solution used to make the compositions and diluted in 1×TE buffer+/−0.2% Triton-X 100. Diluted RiboGreen® dye (according to the manufacturer's instructions) is then added to each of the standards and samples and allowed to incubate for approximately 10 minutes at room temperature, in the absence of light. A SpectraMax M5 Microplate Reader (Molecular Devices) is used to read the samples with excitation, auto cutoff and emission wavelengths set to 488 nm, 515 nm, and 525 nm respectively. Total RNA and free RNA are determined from the appropriate standard curves. Alternatively, the total RNA concentration can be determined by a reverse-phase ion-pairing (RP-IP) HPLC method. Triton X-100 is used to disrupt the LNPs, releasing the RNA. The RNA is then separated from the lipid components chromatographically by RP-IP HPLC and quantified against a standard curve using UV absorbance at 260 nm.
In vivo editing efficiency for materials delivered with formulations including various amine lipid (or ionizable lipid) compounds in Experiments 1 through 14 as described in Tables 3 and 4 was assessed. Editing was measured using G000534 (SEQ ID NO: 5) which targets the rat TTR gene. Lipids described above were assessed for efficacy through in vivo editing experiments. LNPs were formulated at a 1:2 w/w ratio of sgRNA (SEQ ID NO: 5) and Cas9 mRNA (SEQ ID NO: 3). In Experiments 1 through 13, lipid components of the LNP are formulated in a molar ratio of 50% ionizable lipid, 38% cholesterol, 9% DSPC, and 3% PEG2K-DMG. In Experiment 14, lipid components of the LNP are formulated in a molar ratio of 50% ionizable lipid, 38% cholesterol, 9% DSPC, and 3% C13 Ether. The final LNPs used in different in vivo editing experiments were characterized to determine the encapsulation efficiency (% E), polydispersity index (PDI), and average particle size (Z-avg and number mean) according to the analytical methods provided above. The pKa values of each of the following ionizable lipids were also measured to be in the range of about 5.8 to about 7.6.
In vivo editing efficiency for materials delivered with formulations including various combinations of amine lipid (or ionizable lipid) and PEG lipid compounds was assessed as described in Tables 5 and 6. Editing was measured using G000534 (SEQ ID NO: 5) which targets the rat TTR gene. Lipids described above were assessed for efficacy through in vivo editing experiments. LNPs were formulated at a 1:2 w/w ratio of sgRNA (SEQ ID NO: 5) and Cas9 mRNA (SEQ ID NO:3). Lipid components of the LNP are formulated in a molar ratio of 50% ionizable lipid, 38% cholesterol, 9% DSPC, and 3% of various PEG lipids (e.g., PEG2K-DMG, C13 Ether, C14 Ether). The final LNPs used in different in vivo editing experiments were characterized to determine the encapsulation efficiency (% E), polydispersity index (PDI), and average particle size (Z-avg and number mean) according to the analytical methods provided above. The pKa values of each of the following ionizable lipids were also measured to be in the range of about 5.8 to about 7.6.
In vivo editing efficiency for materials delivered with formulations including various amine lipid (or ionizable lipid) compounds as described in Tables 7 and 8 was assessed. […]

[1] = Table 3, Experiments 1-13, LNP 50% ionizable lipid, 38% cholesterol, 9% DSPC, 3% PEG2K-DMG

Row | SMILES | % E (encapsulation efficiency) [1] | further results
1 | CCCCCCCCOC(CCC(=O)OCC(COC(=O)CCC(OCCCCCCCC)OCCCCCCCC)COC(=O)OCCCN(CC)CC)OCCCCCCCC [Compound 1, 2-((((3-(diethylamino)propoxy)carbonyl)oxy)methyl)propane-1,3-diyl bis(4,4-bis(octyloxy)butanoate)] | 98% | 
2 | CCCCCCCCC(CCCCCCCC)OC(=O)CCCC(=O)OCC(COC(=O)CCCC(=O)OC(CCCCCCCC)CCCCCCCC)COC(=O)NCCN(CC)CC [Compound 6, O,O′-(2-((((2-(diethylamino)ethyl)carbamoyl)oxy)methyl)propane-1,3-diyl) di(heptadecan-9-yl) diglutarate] | 99% | % E (encapsulation efficiency) (LNP with 50% ionizable lipid, 38% cholesterol, 9% DSPC, 3% C13 Ether (LNP #1, Compound 53: 3% PEG2K-DMG instead)): 99%; % E (encapsulation efficiency) (Table 3, Experiment 14, LNP with 3% C13 Ether): 98%; % E (encapsulation efficiency) (Table 5, PEG lipid C13 Ether): 97%; % E (encapsulation efficiency) (Table 5, PEG lipid C14 Ether): 98%; % E (encapsulation efficiency) (Table 5, PEG lipid PEG2K-DMG): 97%; % E (encapsulation efficiency) (Table 7, LNP with 3% C13 Ether): 98%
3 | CCCCC/C=C\C/C=C\CCCCCCCC(=O)OCC(CCCCCCCCC(=O)OCC(CCCC)CCCCCC)COC(=O)OCCCN(CC)CC (stereo not shown) [Compound 7, 11-((2-butyloctyl)oxy)-2-((((3-(diethylamino)propoxy)carbonyl)oxy)methyl)-11-oxoundecyl (9Z,12Z)-octadeca-9,12-dienoate] | 98% | 
4 | CCCCCCCCC(CCCCCCCC)OC(=O)CCCCCCC(COC(=O)CCCC(=O)OC(CCCCCCCC)CCCCCCCC)COC(=O)OCCCN(CC)CC (stereo not shown) [Compound 8, 2-((((3-(diethylamino)propoxy)carbonyl)oxy)methyl)-9-(heptadecan-9-yloxy)-9-oxononyl heptadecan-9-yl glutarate] | 98% | 
5 | CCCCC/C=C\C/C=C\CCCCCCCC(=O)OCC(CCCCCCCCC(=O)OC(CCCCCCCC)CCCCCCCC)COC(=O)OCCCN(CC)CC (stereo not shown) [Compound 9, 2-((((3-(diethylamino)propoxy)carbonyl)oxy)methyl)-11-(heptadecan-9-yloxy)-11-oxoundecyl (9Z,12Z)-octadeca-9,12-dienoate] | 99% | 
6 | CCCCC/C=C\C/C=C\CCCCCCCC(=O)OCC(CCCCCCCCC(=O)OC(CCCCCCCC)CCCCCCCC)COC(=O)NCCN(CC)CC (stereo not shown) [Compound 10, 2-((((2-(diethylamino)ethyl)carbamoyl)oxy)methyl)-11-(heptadecan-9-yloxy)-11-oxoundecyl (9Z,12Z)-octadeca-9,12-dienoate] | 97% | 
7 | CCCCC/C=C\C/C=C\CCCCCCCC(=O)OCC(CCCCCCCCC(=O)OC(CCCCCCCC)CCCCCCCC)COC(=O)OCCCN(C)CC (stereo not shown) [Compound 11, 2-((((3-(ethyl(methyl)amino)propoxy)carbonyl)oxy)methyl)-11-(heptadecan-9-yloxy)-11-oxoundecyl (9Z,12Z)-octadeca-9,12-dienoate] | 99% | 
8 | CCCCC/C=C\C/C=C\CCCCCCCC(=O)OCC(CCCCC(=O)OC(CCCC)CCCC)COC(=O)NCCN(CC)CC (stereo not shown) [Compound 12, 2-((((2-(diethylamino)ethyl)carbamoyl)oxy)methyl)-7-(nonan-5-yloxy)-7-oxoheptyl (9Z,12Z)-octadeca-9,12-dienoate] | 96% | 
9 | CCCCC/C=C\C/C=C\CCCCCCCC(=O)OCC(CCCCC(=O)OC(CCCC)CCCC)COC(=O)OCCCN(C)CC (stereo not shown) [Compound 13, 2-((((3-(ethyl(methyl)amino)propoxy)carbonyl)oxy)methyl)-7-(nonan-5-yloxy)-7-oxoheptyl (9Z,12Z)-octadeca-9,12-dienoate] | 98% | 
10 | CCCCC/C=C\C/C=C\CCCCCCCC(=O)OCC(CCCCC(=O)OC(CCCC)CCCC)COC(=O)OCCCN(CC)CC (stereo not shown) [Compound 14, 2-((((3-(diethylamino)propoxy)carbonyl)oxy)methyl)-7-(nonan-5-yloxy)-7-oxoheptyl (9Z,12Z)-octadeca-9,12-dienoate] | 96% | 
11 | CCCCC/C=C\C/C=C\CCCCCCCC(=O)OCC(CCCCC(=O)OC(CCCCCCCC)CCCCCCCC)COC(=O)OCCCN(CC)CC (stereo not shown) [Compound 15, 2-((((3-(diethylamino)propoxy)carbonyl)oxy)methyl)-7-(heptadecan-9-yloxy)-7-oxoheptyl (9Z,12Z)-octadeca-9,12-dienoate] | 98% | 
12 | CCCCC/C=C\C/C=C\CCCCCCCC(=O)OCC(CCCCCCC(=O)OC(CCCCCCCC)CCCCCCCC)COC(=O)OCCCN(CC)CC (stereo not shown) [Compound 16, 2-((((3-(diethylamino)propoxy)carbonyl)oxy)methyl)-9-(heptadecan-9-yloxy)-9-oxononyl (9Z,12Z)-octadeca-9,12-dienoate] | 99% | 
13 | CCCCC/C=C\C/C=C\CCCCCCCC(=O)OCC(CCCCC(=O)OC(CCCCCC)CCCCCC)COC(=O)OCCCN(CC)CC (stereo not shown) [Compound 17, 2-((((3-(diethylamino)propoxy)carbonyl)oxy)methyl)-7-oxo-7-(tridecan-7-yloxy)heptyl (9Z,12Z)-octadeca-9,12-dienoate] | 99% | 
14 | CCCCC/C=C\C/C=C\CCCCCCCC(=O)OCC(CCCCCCC(=O)OC(CCCCCC)CCCCCC)COC(=O)OCCCN(CC)CC (stereo not shown) [Compound 18, 2-((((3-(diethylamino)propoxy)carbonyl)oxy)methyl)-9-oxo-9-(tridecan-7-yloxy)nonyl (9Z,12Z)-octadeca-9,12-dienoate] | 99% | 
15 | CCCCC/C=C\C/C=C\CCCCCCCC(=O)OCC(CCCCCCCCC(=O)OC(CCCCCC)CCCCCC)COC(=O)OCCCN(CC)CC (stereo not shown) [Compound 19, 2-((((3-(diethylamino)propoxy)carbonyl)oxy)methyl)-11-oxo-11-(tridecan-7-yloxy)undecyl (9Z,12Z)-octadeca-9,12-dienoate] | 99% | 
16 | CCCCC/C=C\C/C=C\CCCCCCCC(=O)OCC(CCCCCCC(=O)OC(CCCC)CCCC)COC(=O)OCCCN(CC)CC (stereo not shown) [Compound 20, 2-((((3-(diethylamino)propoxy)carbonyl)oxy)methyl)-9-(nonan-5-yloxy)-9-oxononyl (9Z,12Z)-octadeca-9,12-dienoate] | 98% | 
17 | CCCCCCCCOC(CCC(=O)OCC(COC(=O)CCC(OCCCCCCCC)OCCCCCCCC)COC(=O)NCCN(CC)CC)OCCCCCCCC [Compound 22, 2-((((2-(diethylamino)ethyl)carbamoyl)oxy)methyl)propane-1,3-diyl bis(4,4-bis(octyloxy)butanoate)] | 99% | 
18 | CCCCC/C=C\C/C=C\CCCCCCCCC(COC(=O)CCCCCC(=O)OC(CCCCCCCC)CCCCCCCC)COC(=O)NCCN(CC)CC (stereo not shown) [Compound 23, 1-((11Z,14Z)-2-((((2-(diethylamino)ethyl)carbamoyl)oxy)methyl)icosa-11,14-dien-1-yl) 7-(heptadecan-9-yl) heptanedioate] | 92% and 95% | 
19 | CCCCCCCCC(CCCCCCCC)OC(=O)CCCC(=O)OCC(COC(=O)CCCC(=O)OC(CCCCCCCC)CCCCCCCC)COC(=O)NCCN1CCCCC1 [Compound 28, di(heptadecan-9-yl) O,O′-(2-((((2-(piperidin-1-yl)ethyl)carbamoyl)oxy)methyl)propane-1,3-diyl) diglutarate] | 99% | 
